Laboratory results from article PMC5132201, “Formylated MHC Class Ib Binding Peptides Activate Both Human and Mouse Neutrophils Primarily through Formyl Peptide Receptor 1” (PLoS ONE, 2016).
Square brackets hold non-standard residues; d marks the D form. Ends that are not written are not given here. Peptide text beside a SMILES is read from it. * marks the point of attachment. For = O=C*

Columns and labels:
FPR1 = assay: NADPH-oxidase activity in human neutrophils pre-incubated with the FPR1 antagonist cyclosporine H; type: cell-based; conditions: for Effect of cyclosporine H on the peptide-induced activity: human neutrophils pre-incubated 5 min at 37°C with 1 μM cyclosporine H (FPR1 antagonist); for Preferred receptor: human neutrophils, from cyclosporine H / PBP10 sensitivity
Experimental: (§1) NADPH-oxidase activity was determined using isoluminol and HRP-enhanced chemiluminescence (CL) systems that allow for the determination of superoxide production. […] The tubes containing 4 U HRP and 10 μg/ml isoluminol together with the cells were equilibrated in the Biolumat for 10 min at 37°C, after which the stimulus (100 μl) was added. The light emission was recorded continuously.
(§2) Neutrophil NADPH-oxidase activity was measured by an isoluminol/HPR chemiluminescence system. […] (10 nM; time for addition indicated by an arrow). […] (1 μM) in the presence or absence (control) of FPR specific inhibitors. Abscissa, Time of study (min); ordinate, superoxide production (in arbitrary light units, cpmx10^-6). […] Data are expressed as mean ± SD from four independent experiments. Abscissa, agonist concentration (M); ordinate, superoxide production (percent of max).

Fpr2^-/- neutrophils = assay: NADPH-oxidase activity in neutrophils from wild type versus Fpr2-/- mice; type: cell-based; conditions: mouse neutrophils; from WT versus Fpr2-/- cells
Description: Mice (10–16 weeks of age) were killed by cervical dislocation, the femurs and tibias were removed and freed of soft tissue attachments, and the extreme distal tip of each extremity was cut off. KRG without Ca^2+ and Mg^2+ (KRG-) was forced through the bone by using a 1-ml syringe with a 27-gauge needle. After dispersing cell clumps and removing the debris, the bone marrow granulocytes were isolated according to an earlier described procedure [26] with some modifications. Briefly, cell suspensions in 2 ml of KRG (−) were laid on top of a three-layer Percoll gradient (1.095, 1.085, and 1.070 g/ml). The density of each Percoll solution was verified using density marker beads. […] The cell number and population of bone marrow cells were determined by flow cytometry.
NADPH-oxidase activity was determined using isoluminol and HRP-enhanced chemiluminescence (CL) systems that allow for the determination of superoxide production [27, 28]. […] The light emission was recorded continuously.
Naïve bone marrow cells produce very low level of superoxide upon stimulation and to increase this production, the cells were routinely primed for one hour at RT follow by mouse recombinant TNF-α (10 ng/ml, final concentration) priming for a period of 20 min at 37°C, after which the cells were stimulated and ROS production was determined as described above.

[1] = target: T1, bone marrow derived mouse neutrophils (Mus musculus, UniProt P33766); conditions: for EC50, NADPH-oxidase activity (superoxide production): TNF-α primed bone marrow derived mouse neutrophils, isoluminol/HRP chemiluminescence, 37°C, peak response as percent of maximal response, mean of 3-4 independent experiments; for Relative potency, mouse versus human neutrophils: comparison of EC50 values of NADPH-oxidase activation in the two species
T1 sequence (P33766 1-364): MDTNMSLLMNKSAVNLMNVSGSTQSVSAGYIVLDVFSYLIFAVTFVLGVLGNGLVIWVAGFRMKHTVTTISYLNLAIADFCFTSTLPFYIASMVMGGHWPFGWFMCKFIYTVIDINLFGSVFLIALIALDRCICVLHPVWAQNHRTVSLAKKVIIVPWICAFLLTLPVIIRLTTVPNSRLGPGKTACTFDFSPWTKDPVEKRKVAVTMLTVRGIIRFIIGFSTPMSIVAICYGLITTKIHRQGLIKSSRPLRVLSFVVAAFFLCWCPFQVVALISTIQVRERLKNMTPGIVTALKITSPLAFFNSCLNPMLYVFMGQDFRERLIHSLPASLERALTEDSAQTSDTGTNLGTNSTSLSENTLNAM

human neutrophils = target: T2, human neutrophils (Homo sapiens, UniProt P21462); assay: NADPH-oxidase activity (superoxide production), isoluminol/HRP chemiluminescence, human neutrophils; type: cell-based; conditions: for Concentration needed to induce full NADPH-oxidase activity: efficacy close to that of fMIFL; for EC50, NADPH-oxidase activity (superoxide production): isoluminol/HRP chemiluminescence, 37°C, peak response as percent of maximal response, mean of 3-4 independent experiments
T2 sequence (P21462 1-350): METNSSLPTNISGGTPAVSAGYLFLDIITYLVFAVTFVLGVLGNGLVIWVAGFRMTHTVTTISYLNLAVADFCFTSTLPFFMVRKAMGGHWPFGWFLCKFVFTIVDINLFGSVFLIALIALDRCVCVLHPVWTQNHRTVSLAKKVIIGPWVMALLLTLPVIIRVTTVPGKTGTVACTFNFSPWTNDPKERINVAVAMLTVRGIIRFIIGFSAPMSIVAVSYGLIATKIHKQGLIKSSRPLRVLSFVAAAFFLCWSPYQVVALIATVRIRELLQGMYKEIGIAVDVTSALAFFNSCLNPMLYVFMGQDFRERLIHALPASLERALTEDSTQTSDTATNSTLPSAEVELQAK

FPR2 = assay: NADPH-oxidase activity in human neutrophils pre-incubated with the FPR2 antagonist PBP10; type: cell-based; conditions: human neutrophils pre-incubated 5 min at 37°C with 1 μM PBP10 (FPR2 antagonist)
Experimental: as §1, §2

H2-M3 = conditions: crystal structure study; cited from earlier work
Description: Much less is known about the murine Fprs. It is clear that mouse neutrophils express orthologous of FPR1 and FPR2 (Fpr1 and Fpr2, respectively), but the pharmacological similarities/differences between the human and mouse neutrophil receptors have not been characterized in detail. […] In addition to Fprs, another immune response system, the H2-M3 complex, has evolved in ...

M3 = conditions: high-, medium- and low-binders by induction of M3 expression on P388-M3 transfected cells; cited from earlier work
[2] = target: formyl peptide receptor 1 (human) (human (endogenous in neutrophils)) (UniProt P21462)
[3] = target: formyl peptide receptor 1 (human) (human (endogenous in neutrophils)) (UniProt P21462); remark: listed apart in the source
[4] = target: formyl peptide receptor 1 (mouse) (mouse (endogenous in bone marrow neutrophils)) (UniProt P33766)
[5] = target: formyl peptide receptor 1 (human) (human (endogenous in neutrophils)) (UniProt P21462); remark: listed apart in the source

Q: What does the source list for `CC[C@H](C)[C@H](NC(=O)[C@H](CC(N)=O)NC(=O)[C@@H](NC(=O)[C@H](Cc1ccccc1)NC(=O)[C@H](Cc1ccc(O)cc1)NC(=O)[C@H](CCSC)NC=O)[C@@H](C)CC)C(=O)N[C@@H](CC(C)C)C(=O)N[C@H](C(=O)N[C@@H](CC(C)C)C(=O)O)[C@@H](C)O` (For-MYFINILTL-OH; C-terminus assumed)?
A: Effect of cyclosporine H on the peptide-induced activity (FPR1): inhibited; Preferred receptor (FPR1): FPR1; Preferred receptor (Fpr2^-/- neutrophils): Fpr1; EC50 [1]: 14 nM; EC50, NADPH-oxidase activity (superoxide production) [1]: low nM range; Agonist efficacy (full/partial) (human neutrophils; human neutrophils, compared with fMLF or fMIFL): full agonist; Concentration needed to induce full NADPH-oxidase activity (human neutrophils; human neutrophils): around 100 nM; Effect of PBP10 on the peptide-induced activity (FPR2): no inhibition; Preference of H2-M3 for binding the N-formylated over the non-formylated peptide (H2-M3): 10^4 fold

Q: Which results are given for GYFINILTL?
A: Neutrophil activation [1]: Neither human nor mouse neutrophils could be activated; Neutrophil activation (human neutrophils): Neither human nor mouse neutrophils could be activated

Q: For MYFINILTL, which “Effect of cyclosporine H on the peptide-induced activity” value (FPR1) is on record?
A: not by cyclosporine H

Q: What about the Preferred receptor (FPR1) of the same molecule?
A: FPR2

Q: And the NADPH-oxidase activity induced [1]?
A: No activity

Q: And the NADPH-oxidase activity induced (human neutrophils; human neutrophils, concentrations lower than 1 μM)?
A: No activity

Q: And the NADPH-oxidase activity induced (human neutrophils; human neutrophils, peptide 1 μM (Fig 1A inset))?
A: very low level of activity

Q: And the “Effect of PBP10 on the peptide-induced activity” value (FPR2)?
A: inhibited by PBP10

Q: With fGYFINILTL as the molecule, how does the Neutrophil activation [1] read?
A: Neither human nor mouse neutrophils could be activated

Q: And the Neutrophil activation (human neutrophils)?
A: Neither human nor mouse neutrophils could be activated

Q: What does the source list for “fMFFLDA [formylated peptide from a Mycobacterium tuberculosis ribonuclease]”?
A: Relative potency, mouse versus human neutrophils [1]: very similar in the two species; M3 binding affinity group (M3): middle range

Q: With “fMILLV [formylated peptide from a Mycobacterium tuberculosis transport permease]” as the molecule, how does the “EC50, NADPH-oxidase activity (superoxide production)” value (from here on “EC50, NADPH-oxidase activity”) [1] read?
A: low nM range

Q: What about the “Relative potency, mouse versus human neutrophils” value (“Relative potency” below) [1] of the same molecule?
A: equally potent

Q: What about the “Concentration needed to induce full NADPH-oxidase activity” value (human neutrophils; human neutrophils) of the same molecule?
A: around 100 nM

Q: And the “EC50, NADPH-oxidase activity” value (human neutrophils; human neutrophils)?
A: low nM range

Q: What about the “M3 binding affinity group” value (M3) of the same molecule?
A: highest M3 affinity

Q: For “fMIVIL [formylated peptide from a not identified protein in Listeria monocytogenes]”, which “EC50, NADPH-oxidase activity” value [1] is on record?
A: low nM range

Q: What about the “Relative potency” value [1] of the same molecule?
A: order of potency was reversed

Q: What about the “EC50, NADPH-oxidase activity” value (human neutrophils; human neutrophils) of the same molecule?
A: low nM range

Q: What about the “M3 binding affinity group” value (M3) of the same molecule?
A: highest M3 affinity

Q: What does the source list for “fMIVVLV [formylated peptide from a Mycobacterium tuberculosis pyrophosphohydrolase]”?
A: EC50, NADPH-oxidase activity (superoxide production) [1]: low nM range; Relative potency, mouse versus human neutrophils [1]: more potent on mouse cells than on human cells; EC50, NADPH-oxidase activity (superoxide production) (human neutrophils; human neutrophils): low nM range; M3 binding affinity group (M3): highest M3 affinity

Q: With “fMLFAAL [formylated peptide from a Mycobacterium tuberculosis permease]” as the molecule, how does the “Relative potency” value [1] read?
A: potencies were reversed

Q: What about the “Potency rank among the peptides” value (human neutrophils; human neutrophils) of the same molecule?
A: most potent to activate human neutrophils

Q: And the “Concentration needed to induce full NADPH-oxidase activity” value (human neutrophils; human neutrophils)?
A: around 100 nM

Q: And the “M3 binding affinity group” value (M3)?
A: lowest binding affinity

Q: With “fMWYYLF [formylated peptide from a Mycobacterium tuberculosis acyltransferase]” as the molecule, how does the “Relative potency” value [1] read?
A: more potent for murine cells than for human cells

Q: And the “Potency rank among the peptides” value ([1]; mouse neutrophils)?
A: most potent to activate mouse neutrophils

Q: And the “M3 binding affinity group” value (M3)?
A: lowest binding affinity

Q: Which EC50 of superoxide release from human neutrophils [2] does the source give for For-[dM]YFINILTL [fmYFINILTL] here?
A: 200 nM

Q: For For-MYFINILTL [f…], which EC50 of NADPH-oxidase activity (superoxide production, isoluminol/HRP chemiluminescence) in human neutrophils [3] is on record?
A: 5 nM

Q: Which EC50 of NADPH-oxidase activity in mouse neutrophils [4] does the source give for For-MFLIDV [fMFLIDV] here?
A: 1 nM

Q: What about the EC50 of NADPH-oxidase activity in human neutrophils [5] of the same molecule?
A: 100 nM
